According to patent publication US20250197387A1, “BCL-XL DEGRADERS AND USES THEREOF” (Kymera Therapeutics, Inc., priority 2021, published 2025):
Like-named read-outs stand apart in the source and are kept apart here.

How the values were obtained:
Type in all cases: cell-based
[1] = system: Caki-2 cells; test: CTG (CellTiter-Glo) cell viability assay, Caki-2; settings: Homo sapiens, 72 h, 3 day incubation, read-out: CTG Chempartner - Caki-2 3 day: Average external-IC50
In short: (§1)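 Nine-point 1:3 compound series topping at 10 μM (0.2% DMSO final) applied for 3 days to 10,000 MOLT-4 or Caki-2 cells per well, 37° C., 5% CO2. CellTiter-Glo luminescence read after 10 min at room temperature; three-parameter fit gave IC50.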

[2] = system: MOLT-4 cells; test: CTG (CellTiter-Glo) cell viability assay, MOLT-4; settings: Homo sapiens, 3 day incubation, read-out: CTG Cell Viability Assay - MOLT-4 3 day: Average external-IC50
In short: as §1

[3] = biological target: T1, BCL-XL (Homo sapiens, UniProt Q07817); test: Bcl-xL ELISA degradation in MOLT-4 cells, 6 h; settings: for DC50: read-out: Bcl-xL ELISA in MOLT-4 degradation 6 h: Mean external-Abs DC50
T1 construct: endogenous in cells; host or cells: MOLT-4
Experimental: The letter codes for BCL-XL DC50 include: A (<0.01 μM); B (0.01-0.1 μM); C (>[…]); D (>0.5-1.0 μM); and E (>1.0 μM). The letter codes for Dmax % include A (>75%); B (50 to 75%); C (<50%).

T1 sequence (Q07817 whole entry): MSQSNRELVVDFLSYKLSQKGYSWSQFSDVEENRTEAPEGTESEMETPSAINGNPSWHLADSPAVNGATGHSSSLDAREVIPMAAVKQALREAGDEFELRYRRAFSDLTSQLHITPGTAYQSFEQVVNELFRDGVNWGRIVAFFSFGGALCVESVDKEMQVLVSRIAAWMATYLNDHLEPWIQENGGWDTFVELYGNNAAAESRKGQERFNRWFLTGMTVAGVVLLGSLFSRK

Structure (SMILES)	IC50 [1] [µM]	IC50 ([2]; MOLT-4, 72 h) [µM]	Dmax [3] [%]	DC50 [3] [µM]	IC50 ([2]; 72 h) [µM]
Cc1ncsc1-c1ccc(CNC(=O)[C@@H]2C[C@@H](O)CN2C(=O)[C@@H](NC(=O)CCc2ccc(S(=O)(=O)NC(=O)c3nc(N4CCc5cccc(C(=O)Nc6nc7ccccc7s6)c5C4)ccc3-c3cnn(CC4CCCCC4)c3C)cn2)C(C)(C)C)cc1 [I-342]	> 10	0.1 to 1	> 75	0.1 to 0.5	
C#Cc1ccc([C@H](C)NC(=O)[C@@H]2C[C@@H](O)CN2C(=O)[C@@H](NC(=O)CCCCS(=O)(=O)NC(=O)c2nc(N(C)c3cc(C)c(Nc4nc5ccccc5s4)nn3)ccc2-c2cnn(CC34CC5CC(CC(C5)C3)C4)c2C)C(C)(C)C)cc1 [I-368]	> 10	< 0.1	> 75	0.01 to 0.1	
Cc1ncsc1-c1ccc([C@H](C)NC(=O)[C@@H]2C[C@@H](O)CN2C(=O)[C@@H](NC(=O)C2CCN(c3ccc(S(=O)(=O)NC(=O)c4nc(N5CCc6cccc(C(=O)Nc7nc8ccccc8s7)c6C5)ccc4-c4cnn(CC5CCCC5)c4C)cc3)CC2)C(C)(C)C)cc1 [I-348]	> 10	< 0.1	> 75	< 0.01	
Cc1ncsc1-c1ccc(CNC(=O)[C@@H]2C[C@@H](O)CN2C(=O)[C@@H](NC(=O)COc2ccc(S(=O)(=O)NC(=O)c3nc(N4CCc5cccc(C(=O)Nc6nc7ccccc7s6)c5C4)ccc3-c3cnn(CC4CCCCC4)c3C)cc2)C(C)(C)C)cc1 [I-327]	1 to 10	< 0.1	> 75	0.01 to 0.1	
Cc1ncsc1-c1ccc([C@H](C)NC(=O)[C@@H]2C[C@@H](O)CN2C(=O)[C@@H](NC(=O)C2CCN(CCS(=O)(=O)NC(=O)c3nc(N4CCc5cccc(C(=O)Nc6nc7ccccc7s6)c5C4)ccc3-c3cnn(CC4CCCCC4)c3C)CC2)C(C)(C)C)cc1 [I-373]	> 10	0.1 to 1	> 75	0.01 to 0.1	
C#Cc1ccc([C@H](CO)NC(=O)[C@@H]2C[C@@H](O)CN2C(=O)[C@@H](NC(=O)CCNCCS(=O)(=O)NC(=O)c2nc(N3CCc4cccc(C(=O)Nc5nc6cccnc6s5)c4C3)ccc2-c2cnn(CC(C)C)c2C)C(C)(C)C)cc1 [I-414]	> 10	> 3	50 to 75	> 1	
Cc1ncsc1-c1ccc(CNC(=O)[C@@H]2C[C@@H](O)CN2C(=O)[C@@H](NC(=O)CCc2ccc(S(=O)(=O)NC(=O)c3nc(N4CCc5cccc(C(=O)Nc6nc7ccccc7s6)c5C4)ccc3-c3cnn(CC(C)C)c3C)cc2)C(C)(C)C)cc1 [I-318]	1 to 10	< 0.1	> 75	0.01 to 0.1	
COc1nn(C)c2ccc(CNC(=O)[C@@H]3C[C@@H](O)CN3C(=O)[C@@H](NC(=O)CCCCCS(=O)(=O)NC(=O)c3nc(N4CCc5cccc(C(=O)Nc6nc7cccnc7s6)c5C4)ccc3-c3cnn(CC4CCCCC4)c3C)C(C)(C)C)cc12 [I-483]	> 10	< 0.1	> 75	0.01 to 0.1	
Cc1cc(N(C)c2ccc(-c3cnn(CC45CC6CC(CC(C6)C4)C5)c3C)c(C(=O)NS(=O)(=O)CCCCC(=O)N[C@H](C(=O)N3C[C@H](O)C[C@H]3C(=O)N[C@@H](C)c3ccc(-c4scnc4C)cc3)C(C)(C)C)n2)nnc1Nc1nc2ccccc2s1 [I-372]	> 10	< 0.1	> 75	0.01 to 0.1	
C#Cc1ccc(CNC(=O)[C@@H]2C[C@@H](O)CN2C(=O)[C@@H](NC(=O)CCCCCS(=O)(=O)NC(=O)c2nc(N3CCc4cccc(C(=O)Nc5nc6ccccc6s5)c4C3)ccc2-c2cnn(CC3CCCCC3)c2C)C(C)(C)CCO)cc1 [I-354]	> 10	< 0.1	> 75	< 0.01	
Cc1ncsc1-c1ccc([C@H](C)NC(=O)[C@@H]2C[C@@H](O)CN2C(=O)[C@@H](NC(=O)CCCCCS(=O)(=O)NC(=O)c2nc(N3CCc4cccc(C(=O)Nc5nc6c(F)cccc6s5)c4C3)ccc2-c2cnn(CC3CCCCC3)c2C)C(C)(C)C)cc1 [I-459]	> 10	< 0.1	> 75	< 0.01	
Cc1cc(N(C)c2ccc(-c3cnn(CC45CC6CC(CC(C6)C4)C5)c3C)c(C(=O)NS(=O)(=O)CCCC(=O)N[C@H](C(=O)N3C[C@H](O)C[C@H]3C(=O)N[C@@H](C)c3ccc(-c4scnc4C)cc3)C(C)(C)C)n2)nnc1Nc1nc2cccnc2s1 [I-452]	> 10	1 to 3	> 75	0.1 to 0.5	
Cc1cc(N(C)c2ccc(-c3cnn(CC45CC6CC(CC(C6)C4)C5)c3C)c(C(=O)NS(=O)(=O)CCCC(=O)N[C@H](C(=O)N3C[C@H](O)C[C@H]3C(=O)N[C@@H](C)c3ccc(-c4scnc4C)cc3)C(C)(C)C)n2)nnc1Nc1nc2ccccc2s1 [I-370]	> 10	< 0.1	> 75	0.01 to 0.1	
Cc1ncsc1-c1ccc([C@H](C)NC(=O)[C@@H]2C[C@@H](O)CN2C(=O)[C@@H](NC(=O)C2CCN(CCCS(=O)(=O)NC(=O)c3nc(N4CCc5cccc(C(=O)Nc6nc7ccccc7s6)c5C4)ccc3-c3cnn(CC4CCCCC4)c3C)CC2)C(C)(C)C)cc1 [I-381]	> 10	0.1 to 1	> 75	0.01 to 0.1	
Cc1ncsc1-c1ccc([C@H](C)NC(=O)[C@@H]2C[C@@H](O)CN2C(=O)[C@@H](NC(=O)C2CCN(c3ccc(S(=O)(=O)NC(=O)c4nc(N5CCc6cccc(C(=O)Nc7nc8ccccc8s7)c6C5)ccc4-c4ccnc(OC(C)C)c4C)cc3)CC2)C(C)(C)C)cc1 [I-300]	1 to 10	0.1 to 1	50 to 75	0.1 to 0.5	
C#Cc1ccc(CNC(=O)[C@@H]2C[C@@H](O)CN2C(=O)[C@@H](NC(=O)CCCS(=O)(=O)NC(=O)c2nc(N3CCc4cccc(C(=O)Nc5nc6cccnc6s5)c4C3)ccc2-c2cnn(CC3CCCCC3)c2C)C(C)(C)C)cc1 [I-362]	> 10	0.1 to 1	> 75	0.01 to 0.1	
C#Cc1ccc(CNC(=O)[C@@H]2C[C@@H](O)CN2C(=O)[C@@H](NC(=O)CCc2ccc(S(=O)(=O)NC(=O)c3nc(N(C)c4cc(C)c(Nc5nc6ccccc6s5)nn4)ccc3-c3cnn(CC(C)C)c3C)cc2)C(C)(C)C)cc1 [I-326]	> 10	> 3	< 50	> 1	
Cc1ncsc1-c1ccc(CNC(=O)[C@@H]2C[C@@H](O)CN2C(=O)[C@@H](NC(=O)CCc2ccc(S(=O)(=O)NC(=O)c3nc(N4CCc5cccc(C(=O)Nc6nc7ccccc7s6)c5C4)ccc3-c3cnn(CC4CCCCC4)c3C)c(F)c2)C(C)(C)C)cc1 [I-320]	> 10	1 to 3	> 75	0.1 to 0.5	
Cc1ncsc1-c1ccc([C@H](C)NC(=O)[C@@H]2C[C@@H](O)CN2C(=O)[C@@H](NC(=O)CN2CCC(CS(=O)(=O)NC(=O)c3nc(N4CCc5cccc(C(=O)Nc6nc7ccccc7s6)c5C4)ccc3-c3cnn(CC4CCCCC4)c3C)CC2)C(C)(C)C)cc1 [I-335]	1 to 10		> 75	< 0.01	< 0.1
Cc1ncsc1-c1ccc(CNC(=O)[C@@H]2C[C@@H](O)CN2C(=O)[C@@H](NC(=O)CCc2cccc(S(=O)(=O)NC(=O)c3nc(N4CCc5cccc(C(=O)Nc6nc7ccccc7s6)c5C4)ccc3-c3cnn(CC4CCCCC4)c3C)c2)C(C)(C)C)cc1 [I-283]	1 to 10	< 0.1	> 75	< 0.01	
Cc1ncsc1-c1ccc([C@H](CO)NC(=O)[C@@H]2C[C@@H](O)CN2C(=O)[C@@H](NC(=O)CCNCCS(=O)(=O)NC(=O)c2nc(N3CCc4cccc(C(=O)Nc5nc6cccnc6s5)c4C3)ccc2-c2cnn(CC3CCCCC3)c2C)C(C)(C)C)cc1 [I-377]	> 10	1 to 3	> 75	< 0.01	
CCC(CC)Cn1ncc(-c2ccc(N3CCc4cccc(C(=O)Nc5nc6ccccc6s5)c4C3)nc2C(=O)NS(=O)(=O)c2ccc(N3CCC(C(=O)N[C@H](C(=O)N4C[C@H](O)C[C@H]4C(=O)N[C@@H](C)c4ccc(-c5scnc5C)cc4)C(C)(C)C)CC3)cc2)c1C [I-349]	> 10	< 0.1	> 75	< 0.01	
